Test results taken from patent US11512053B2, “Arginine methyltransferase inhibitors and uses thereof” (priority 2013, dated 2022).
pIC50: −log10 of the molar value. Where two headings read alike, the source gives them in different places.

Target: T1, full-length human PRMT3 isoform 1 (GST-tagged) (Homo sapiens, UniProt O60678)
T1 construct: GST-tagged PRMT3; made in house; host or cells: E. coli BL21(DE3) Gold
Assay: PRMT3 Biochemical Assay (3H-SAM Flashplate, peptide substrate)
Text: General Materials. S-adenosylmethionine (SAM), S-adenosylhomocysteine (SAH), bicine, Tween20, dimethylsulfoxide (DMSO), bovine skin gelatin (BSG),), isopropyl-β-D-thiogalactopyranoside (IPTG), and Tris(2-carboxyethyl)phosphine hydrochloride solution (TCEP) were purchased from Sigma-Aldrich at the highest level of purity possible. ^3H-SAM was purchase from American Radiolabeled Chemicals with a specific activity of 80 Ci/mmol. 384-well streptavidin Flashplates were purchased from PerkinElmer.
Substrates. Peptide containing the classic RMT substrate motif was synthesized with an N-terminal linker-affinity tag motif and a C-terminal amide cap by 21st Century Biochemicals. The peptide was purified by high-performance liquid chromatography (HPLC) to greater than 95% purity and confirmed by liquid chromatography mass spectrometry (LC-MS). The sequence was Biot-Ahx-[…]-amide (SEQ ID NO.:11).
Molecular Biology: Full-length human PRMT3 (NM_005788.3) isoform 1 transcript clone was amplified from an HEK 293 cDNA library and subcloned into pGEX-KG (GE Life Sciences). The resulting construct encodes an N-terminal GST tag and a thrombin cleavage sequence ([…] […] […] […] S) (SEQ ID NO.:12) fused directly to Cys 2 of PRMT3.
Protein Expression. E. coli (BL21(DE3) Gold, Stratagene) made competent by the CaCl2) method were transformed with the PRMT3 construct and ampicillin selection. Protein over-expression was accomplished by growing the PRMT3 expressing E. coli clone and inducing expression with 0.3 mM IPTG at 16° C. The culture was grown for 12 hours, harvested by centrifugation, and stored at −80° C. for purification.
Protein Purification. […] GST-tagged PRMT3 was eluted with 50 mM Tris, 2 mM glutathione, pH 7.1 and 50 mM Tris, 20 mM glutathione, pH 7.1. Pooled fractions were dialysed in 20 mM Tris, 50 mM NaCl, 5% glycerol, 1 mM EDTA, 1 mM DTT, pH7.5 (Buffer B) and applied to a Q Sepharose Fast Flow column. GST-tagged PRMT3 was eluted by 500 mM NaCl in buffer B. Pooled fractions were dialyzed in 25 mM phosphate buffer, 100 mM NaCl, 5% glycerol, 2 mM DTT, pH 6.8 (Buffer C) and loaded on to a ceramic hydroxyapatite column. GST-tagged PRMT3 eluted with 25-400 mM phosphate in buffer C. Protein was concentrated and buffer was exchanged to 20 mM Tris, 150 mM NaCl, 5% glycerol, 5 mM β-mercaptoethanol, pH7.8 by ultrafiltration. The purity of recovered protein was 70%.
General Procedure for PRMT3 Enzyme Assays on Peptide Substrates. The assays were all performed in a buffer consisting of 20 mM Bicine (pH=7.6), 1 mM TCEP, 0.005% BSG, and 0.002% Tween 20, prepared on the day of use. Compounds in 100% DMSO (1 ul) were spotted into a polypropylene 384-well V-bottom plates (Greiner) using a Platemate Plus outfitted with a 384-channel head (Thermo Scientific). DMSO (1 ul) was added to Columns 11, 12, 23, 24, rows A-H for the maximum signal control and 1 ul of SAH, a known product and inhibitor of PRMT3, was added to columns 11, 12, 23, 24, rows I-P for the minimum signal control. A cocktail (40 ul) containing the PRMT3 enzyme was added by Multidrop Combi (Thermo-Fisher). The compounds were allowed to incubate with PRMT3 for 30 min at room temperature, then a cocktail (10 ul) containing SAM and peptide was added to initiate the reaction (final volume=51 ul). The final concentrations of the components were as follows: PRMT3 was 0.5 nM, ^3H-SAM was 100 nM, non-radiolabeled SAM was 1.8 uM, peptide was 330 nM, SAH in the minimum signal control wells was 1 mM, and the DMSO concentration was 2%. The assays were stopped by the addition of potassium chloride (10 ul) to a final concentration of 100 mM. 50 ul of the reaction in the 384-well polypropylene plate was then transferred to a 384-well Flashplate and the biotinylated peptides were allowed to bind to the streptavidin surface for at least 1 hour before being washed once with 0.1% Tween20 in a Biotek ELx405 plate washer. […]

T1 sequence (O60678 with tags, fused parts or gaps): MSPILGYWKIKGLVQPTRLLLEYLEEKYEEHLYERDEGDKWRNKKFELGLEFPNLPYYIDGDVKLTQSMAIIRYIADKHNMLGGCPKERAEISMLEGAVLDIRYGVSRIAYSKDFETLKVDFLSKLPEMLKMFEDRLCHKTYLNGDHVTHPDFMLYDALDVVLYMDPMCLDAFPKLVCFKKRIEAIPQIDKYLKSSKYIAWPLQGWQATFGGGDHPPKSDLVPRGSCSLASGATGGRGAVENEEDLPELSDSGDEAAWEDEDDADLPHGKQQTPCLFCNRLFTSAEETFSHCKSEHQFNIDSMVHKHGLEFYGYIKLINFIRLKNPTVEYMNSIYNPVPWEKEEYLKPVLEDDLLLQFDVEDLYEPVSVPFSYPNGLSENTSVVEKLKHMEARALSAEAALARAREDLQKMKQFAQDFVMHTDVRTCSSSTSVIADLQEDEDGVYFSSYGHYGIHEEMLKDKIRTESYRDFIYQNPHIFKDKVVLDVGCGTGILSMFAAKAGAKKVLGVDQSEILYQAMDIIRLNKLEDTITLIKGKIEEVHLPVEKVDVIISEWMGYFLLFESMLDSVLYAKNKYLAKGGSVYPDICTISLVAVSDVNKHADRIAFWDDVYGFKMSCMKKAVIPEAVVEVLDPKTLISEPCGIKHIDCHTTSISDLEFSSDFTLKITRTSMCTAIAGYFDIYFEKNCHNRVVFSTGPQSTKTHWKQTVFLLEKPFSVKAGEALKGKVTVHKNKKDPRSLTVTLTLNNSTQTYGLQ

With `CN(CCN)Cc1c[nH]nc1CCc1ccccc1` [Compound 9] the pIC50 was 5.00 to 5.52 and the pIC50 (single experiment or average of multiple experiments) was 5.05.
